This is an account of results in patent US20110294794A1, “TREATMENT OF PROTEINOPATHIES USING A FARNESYL TRANSFERASE INHIBITOR” (Link Medicine Corporation, priority 2008, published 2011).

Structures are written as SMILES. Entries after “also recorded” stand apart in the source; their conditions may differ.

The subject of one test is LC3. Put plainly: Punctate LC3 immunostaining in SH-SY5Y cells. The class given is cell-based, human. The settings on record: 100 nM (FIG. 8b). On the procedure:
Cell culture and immunocytochemistry: SH-SY5Y cells were grown in DMEM medium supplemented with 10% FBS and 1% pen/strep at 37° C. and 5% CO2. Cells were differentiated with 10 μM retinoic acid for 48 hr, then treated with the either rapamycin (100 nM or 1 μM) or with 100 nM of either LNK-754-TS or Tipifarnib for 48-72 hr. Cells were then fixed with 4% paraformaldehyde and stained for LC3 (Novus biological, NB100-2331, dilution 1:800) followed by secondary Alexa-564 anti-Rabbit (A-11011).
Autophagy was measured in a neuroblastoma cell culture system by three distinct approaches: quantitation of autophagy-related mRNA's, immunofluorescence microscopy of autophagosomes, and biochemical detection of the microtubule-associated protein 1 light chain 3 (LC3) a key protein that is required for autophagosome formation. Differentiated human neuroblastoma cells (SH-SY5Y) were treated for 72 hr with LNK-754-TS (0.01-100 nM), Zarnestra® (also referred to herein as tipifarnib) (100 nM) or rapamycin (1 μM).

The subject of test [1] is 3T3 H-ras (61L) xenograft tumor. The settings on record: continuous infusion, cited from earlier work.
For test [2], the system named is Aβ. The experiment in a line: h-APPsl transgenic mouse, Aβ immunoreactivity and extracted Aβ. Format: in vivo. Conditions: 0.9 mg/kg once every 24 hr, three months.
Test [3] has as its system Aβ. Put plainly: Aβ pathology in APP/PS1 transgenic mice (6E10, Thioflavin-S, ELISA). The class given is in vivo, mouse. The settings on record: 0.9 mg/kg once every 24 hr, two months. The text has this:
Immunohistochemistry and quantification of stained cells: For evaluation of α-synuclein immunoreactivity (IR), 5 sagittal cryo-cut sections (10 μm slice thickness) from five different layers were used for counting of IR cells in the cortex and hippocampus. Brain sections were stained with a monoclonal human α-synuclein specific antibody (Alexis®; Cat# 804-258-L001; dilution 1:5), followed by a secondary Ab Cy 2-Goat Anti-Rat (Jackson ImmunoResearch®; dilution 1:200). IR positive cells were quantified using specialized image analysis software (Image Pro Plus, version 4.5.1.29). […] Images were evaluated with ImageProPlus (version 6.2) image analysis software. For APP/PS1 transgenic animals sagittal hemisections (40 μm) were collected and processed for Aβ immunohistochemistry using an 6E10 antibody, Thioflavin-S staining Primary antibodies were detected by the ABC method.
ELISA quantification of α-Synuclein in the α-Synuclein transgenic animals: Brain homogenate was centrifuged and the supernatant saved as fraction F1. […] Raw absorbance (405 nm) was then normalized to the total protein concentration of each sample. […] To quantify the amount of human Aβ-40 and Aβ-42, ELISA kits were used (The Genetics Company, Zurich, Switzerland). […]

Consider `C#Cc1cccc(-c2cc(=O)n(C)c3ccc([C@](O)(c4ccc(Cl)cc4)c4cncn4C)cc23)c1` [LNK-754-TS, (R)-6-[(4-chlorophenyl)-hydroxyl-(1-methyl-1-H-imidazol-5-yl)-methyl]-4-(3-ethynylphenyl)-1-methyl-2-(1H)-quinonlinone (2S,3S)-dihydroxybutanedioate], for which, in the test with LC3, the “punctate LC3 immunostaining (number of LC3-positive puncta)” value is “distinct increase; also recorded: increased”. Moreover, the “continuous serum level at which significant inhibition of tumor growth was seen” value in test [1] (7 day treatment) is on record as “above 100 ng/mL”. The “inhibition of Ras farnesylation at which significant inhibition of tumor growth was seen” value in test [1] (tumor tissue) is not below 50%. Besides, the “cortical Aβ immunoreactivity and Aβ extracted in the insoluble fractions” value in the test on Aβ [2] was “did not significantly reduce”. In the test on Aβ [3], the “levels of Aβ40/Aβ42 extracted from whole brain fractions (Elisa)” value was “no statistically significant changes” and the “number of Aβ (6E10) immunoreactive plaques in the subiculum vs. vehicle” value is “lesser, but still significant, effect; also recorded: significant decrease”.
